Drawing on US12479849B2, “EGFR inhibitors for the treatment of cancer” (Hoffmann-La Roche Inc., priority 2019, dated 2025), this text covers IC50 for 23 molecules.

pIC50: −log10 of the molar value.

The experiment concerns the target T1, EGFR TMLRCS (Homo sapiens, UniProt P00533, C797S/L858R/T790M).
T1 construct: host or cells: BaF3-TMLRCS (Ba/F3 cells, kept under puromycin selection)
Kind of experiment: HTRF Phospho EGFR TMLRCS Assay (Cellular). It is filed as cell-based. The conditions noted are these: BaF3-TMLRCS cell line, 4 hours incubation, Phospho-EGFR HTRF readout. An outline of the steps:
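BaF3 cells expressing EGFR L858R/T790M/C797S, 20000/well, treated with compound in dose response for 4 h at 37 °C, 5% CO2. After lysis, phospho-EGFR detected by HTRF with cryptate and d2 antibodies over 4 h at room temperature. Signal taken as 665/616 nm ratio ×10000, normalized.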
For the molecule `CN1CCN(Cc2ccc(-c3cc(Cl)c4cn(C(C(=O)Nc5nccs5)c5ncn6c5C[C@@H](F)C6)nc4c3Cl)cc2)CC1` (mixture of isomers) [Example 96, rac-2-(4,7-Dichloro-6-(4-((4-methylpiperazin-1-yl)methyl)phenyl)-2H-indazol-2-yl)-2-((R)-6-fluoro-6,7-dihydro-5H-pyrrolo[1,2-c]imidazol-1-yl)-N-(thiazol-2-yl)acetamide], the pIC50 was 8.22.
For the molecule `O=C(Nc1nccs1)C(c1ncn2c1C[C@@H](F)C2)n1cc2c(Cl)cc(-c3ccc(C4CCN(CCF)CC4)cc3)c(Cl)c2n1` (stereo partly drawn) [Example 33, 2-(4,7-Dichloro-6-(4-(1-(2-fluoroethyl)piperidin-4-yl)phenyl)-2H-indazol-2-yl)-2-((R)-6-fluoro-6,7-dihydro-5H-pyrrolo[1,2-c]imidazol-1-yl)-N-(thiazol-2-yl)acetamide], the pIC50 is 8.15.
Turning to `O=C(Nc1nccs1)C(c1ncn2c1C[C@@H](F)C2)n1cc2c(Cl)cc(-c3ccc(N4CCN5C[C@H](O)C[C@H]5C4)cc3)c(Cl)c2n1` (stereo partly drawn) [Example 93, 2-(4,7-Dichloro-6-(4-((7R,8aS)-7-hydroxyhexahydropyrrolo[1,2-a]pyrazin-2(1H)-yl)phenyl)-2H-indazol-2-yl)-2-((R)-6-fluoro-6,7-dihydro-5H-pyrrolo[1,2-c]imidazol-1-yl)-N-(thiazol-2-yl)acetamide], the pIC50 is 8.22.
`O=C(Nc1nccs1)C(c1ncn2c1C[C@@H](F)C2)n1cc2c(Cl)cc(-c3ccc(N4CC(CN5CCC(CO)CC5)C4)cc3)c(Cl)c2n1` (mixture of isomers) [Example 59, rac-2-(4,7-Dichloro-6-(4-(3-((4-(hydroxymethyl)piperidin-1-yl)methyl)azetidinyl)phenyl)-2H-indazol-2-yl)-2-((R)-6-fluoro-6,7-dihydro-5H-pyrrolo[1,2-c]imidazol-1-yl)-N-(thiazol-2-yl)acetamide]: the pIC50 is 8.30.
Next, `CN(C)CCc1ccc(-c2cc(Cl)c3cn(C(C(=O)Nc4nccs4)c4ncn5c4C[C@@H](F)C5)nc3c2Cl)cc1` (stereo partly drawn) [Example 35, 2-(4,7-Dichloro-6-(4-(2-(dimethylamino)ethyl)phenyl)-2H-indazol-2-yl)-2-((R)-6-fluoro-6,7-dihydro-5H-pyrrolo[1,2-c]imidazol-1-yl)-N-(thiazol-2-yl)acetamide]: 8.22.
`CN(C)Cc1ccc(-c2cc(Cl)c3cn(C(C(=O)Nc4nccs4)c4ncn5c4C[C@@H](F)C5)nc3c2Cl)cc1` (mixture of isomers) [Example 48, rac-2-(4,7-Dichloro-6-(4-((dimethylamino)methyl)phenyl)-2H-indazol-2-yl)-2-((R)-6-fluoro-6,7-dihydro-5H-pyrrolo[1,2-c]imidazol-1-yl)-N-(thiazol-2-yl)acetamide] had a pIC50 of 8.10.
Consider `CN(CCN1CCC(O)CC1)c1ccc(-c2cc(Cl)c3cn(C(C(=O)Nc4nccs4)c4ncn5c4C[C@@H](F)C5)nc3c2Cl)cc1` (some centres unmarked) [Example 80], for which the pIC50 is 8.10.
For `O=C(Nc1nccs1)C(c1ncn2c1C[C@@H](F)C2)n1cc2c(Cl)cc(-c3ccc(CN4CC5(CC(O)C5)C4)cc3)c(Cl)c2n1` (mixture of isomers) [Example 62, rac-2-(4,7-Dichloro-6-(4-((6-hydroxy-2-azaspiro[3.3]heptan-2-yl)methyl)phenyl)-2H-indazol-2-yl)-2-((R)-6-fluoro-6,7-dihydro-5H-pyrrolo[1,2-c]imidazol-1-yl)-N-(thiazol-2-yl)acetamide], the pIC50 is 8.10.
Next, `O=C(Nc1nccs1)C(c1ncn2c1C[C@@H](F)C2)n1cc2c(Cl)cc(-c3ccc(C4CC(CN5CCC(CO)CC5)C4)cc3)c(Cl)c2n1` (mixture of isomers) [Example 75, rac-2-(4,7-Dichloro-6-(4-(34(4-(hydroxymethyl)piperidin-1-yl)methyl)cyclobutyl)phenyl)-2H-indazol-2-yl)-2-((R)-6-fluoro-6,7-dihydro-5H-pyrrolo[1,2-c]imidazol-1-yl)-N-(thiazol-2-yl)acetamide]: 8.10; `CN(CCN1CC(CO)C1)c1ccc(-c2cc(Cl)c3cn(C(C(=O)Nc4nccs4)c4ncn5c4C[C@@H](F)C5)nc3c2Cl)cc1` (some centres unmarked) [Example 89]: 8.00; `CCN1CC[C@@H](c2ccc(-c3cc(Cl)c4cn(C(C(=O)Nc5nccs5)c5ncn6c5C[C@@H](F)C6)nc4c3Cl)cc2)[C@H](F)C1` (mixture of isomers) [Example 38, 2-[4,7-Dichloro-6-[4-[rac-(3S,4S)-1-ethyl-3-fluoro-4-piperidyl]phenyl]indazol-2-yl]-2-[(6R)-6-fluoro-6,7-dihydro-5H-pyrrolo[1,2-c]imidazol-1-yl]-N-thiazol-2-yl-acetamide OR 2-[4,7-Dichloro-6-[4-[rac-(3R,4R)-1-ethyl-3-fluoro-4-piperidyl]phenyl]indazol-2-yl]-2-[(6R)-6-fluoro-6,7-dihydro-5H-pyrrolo[1,2-c]imidazol-1-yl]-N-thiazol-2-yl-acetamide]: 8.00.
The result for `O=C(Nc1nccs1)C(c1ncn2c1C[C@@H](F)C2)n1cc2c(Cl)cc(-c3ccc([C@@H]4CCN(CCO)C[C@H]4F)cc3)c(Cl)c2n1` (single isomer, unassigned) [Example 54] reads 8.30; that for `CCc1cc(-c2cc(Cl)c3cn(C(C(=O)Nc4nccs4)c4ncn5c4C[C@@H](F)C5)nc3c2Cl)ccc1OCCN(C)C` (stereo partly drawn) [Example 40, 2-(4,7-Dichloro-6-(4-(2-(dimethylamino)ethoxy)-3-ethylphenyl)-2H-indazol-2-yl)-2-((R)-6-fluoro-6,7-dihydro-5H-pyrrolo[1,2-c]imidazol-1-yl)-N-(thiazol-2-yl)acetamide], 8.10; that for `O=C(Nc1nccs1)C(c1ncn2c1C[C@@H](F)C2)n1cc2c(Cl)cc(-c3ccc(C4CCN(C5CC5)CC4)cc3)c(Cl)c2n1` (stereo partly drawn) [Example 28, 2-(4,7-Dichloro-6-(4-(1-cyclopropylpiperidin-4-yl)phenyl)-2H-indazol-2-yl)-2-((R)-6-fluoro-6,7-dihydro-5H-pyrrolo[1,2-c]imidazol-1-yl)-N-(thiazol-2-yl)acetamide], 7.77.
The result for `O=C(Nc1nccs1)C(c1ncn2c1C[C@@H](F)C2)n1cc2c(Cl)cc(-c3ccc(CN4CC5(COC5)C4)cc3)c(Cl)c2n1` (mixture of isomers) [Example 63, rac-2-(6-(4-((2-Oxa-6-azaspiro[3.3]heptan-6-yl)methyl)phenyl)-4,7-dichloro-2H-indazol-2-yl)-2-((R)-6-fluoro-6,7-dihydro-5H-pyrrolo[1,2-c]imidazol-1-yl)-N-(thiazol-2-yl)acetamide] reads 8.30; that for `O=C(Nc1nccs1)C(c1ncn2c1C[C@@H](F)C2)n1cc2c(Cl)cc(-c3ccc(OCCN4CCC5(CC4)CC(O)C5)cc3)c(Cl)c2n1` (mixture of isomers) [Example 92, rac-2-(4,7-Dichloro-6-(4-(2-(2-hydroxy-7-azaspiro[3.5]nonan-7-yl)ethoxy)phenyl)-2H-indazol-2-yl)-2-((R)-6-fluoro-6,7-dihydro-5H-pyrrolo[1,2-c]imidazol-1-yl)-N-(thiazol-2-yl)acetamide], 7.89.
Molecule `O=C(Nc1nccs1)C(c1ncn2c1CCC2)n1cc2c(Cl)cc(-c3ccc(C4CCN(CCF)CC4)cc3)c(Cl)c2n1` (centres unmarked) [Example 103, 2-(4,7-Dichloro-6-(4-(1-(2-fluoroethyl)piperidin-4-yl)phenyl)-2H-indazol-2-yl)-2-(6,7-dihydro-5H-pyrrolo[1,2-c]imidazol-1-yl)-N-(thiazol-2-yl)acetamide] had a pIC50 of 7.70.
Next, “2-(4,7-Dichloro-6-(4-((3S,4S)-3-fluoro-1-(2-methoxyethyl)piperidin-4-yl)phenyl)-2H-indazol-2-yl)-2-((R)-6-fluoro-6,7-dihydro-5H-pyrrolo[1,2-c]imidazol-1-yl)-N-(thiazol-2-yl)acetamide OR 2-(4,7-dichloro-6-(4-((3R,4R)-3-fluoro-1-(2-methoxyethyl)piperidin-4-yl)phenyl)-2H-indazol-2-yl)-2-((R)-6-fluoro-6,7-dihydro-5H-pyrrolo[1,2-c]imidazol-1-yl)-N-(thiazol-2-yl)acetamide [Example 56]”: 7.89; `CCN(C)CCc1ccc(-c2cc(C)c3cn(C(C(=O)Nc4nccs4)c4ncn5c4C[C@@H](F)C5)nc3c2C)cc1` (some centres unmarked) [Example 123]: 7.82; `O=C(Nc1nccs1)C(c1ncn2c1C[C@@H](F)C2)n1cc2c(Cl)cc(-c3ccc(CCN4CCC(CO)CC4)cc3)c(Cl)c2n1` (mixture of isomers) [Example 51, rac-2-(4,7-Dichloro-6-(4-(2-(4-(hydroxymethyl)piperidin-1-yl)ethyl)phenyl)-2H-indazol-2-yl)-2-((R)-6-fluoro-6,7-dihydro-5H-pyrrolo[1,2-c]imidazol-1-yl)-N-(thiazol-2-yl)acetamide]: 8.00.
Take `Cc1c(-c2ccc(N3CCOCC3)cc2)cc(Cl)c2cn(C(C(=O)Nc3nccs3)c3ncn4c3C[C@@H](F)C4)nc12` (stereo partly drawn) [Example 105, 2-(4-Chloro-7-methyl-6-(4-morpholinophenyl)-2H-indazol-2-yl)-2-((R)-6-fluoro-6,7-dihydro-5H-pyrrolo[1,2-c]imidazol-1-yl)-N-(thiazol-2-yl)acetamide]: the pIC50 was 8.10.
As for `CN(C)CCN(C)c1ccc(-c2cc(Cl)c3cn(C(C(=O)Nc4nccs4)c4ncn5c4C[C@@H](F)C5)nc3c2Cl)cc1` (mixture of isomers) [Example 41, rac-2-(4,7-Dichloro-6-(4-((2-(dimethylamino)ethyl)(methyl)amino)phenyl)-2H-indazol-2-yl)-2-((R)-6-fluoro-6,7-dihydro-5H-pyrrolo[1,2-c]imidazol-1-yl)-N-(thiazol-2-yl)acetamide], the pIC50 was 8.00.
The result for `O=C(Nc1nccs1)C(c1ncn2c1C[C@@H](F)C2)n1cc2c(Cl)cc(-c3ccc(CCN4CCC(O)CC4)cc3)c(Cl)c2n1` (mixture of isomers) [Example 64, rac-2-(4,7-Dichloro-6-(4-(2-(4-hydroxypiperidin-1-yl)ethyl)phenyl)-2H-indazol-2-yl)-2-((R)-6-fluoro-6,7-dihydro-5H-pyrrolo[1,2-c]imidazol-1-yl)-N-(thiazol-2-yl)acetamide] reads 8.15.

The pIC50 is −log10 of the IC50, conventionally taken in molar units. The low end stands for a large IC50, the high end for a small IC50.
